How the values were obtained:
Experiment in all cases: relative viability (nuclei count vs DMSO), 5 days (fraction); higher = more cells survive
[1] = compound: NC1(c2ccc(-c3nc4ccn5c(=O)[nH]nc5c4cc3-c3ccccc3)cc2)CCC1 [MK-2206] + CC(C)C[C@H](NC(=O)[C@H](Cc1ccccc1)NC(=O)c1cnccn1)B(O)O [Bortezomib] (partner 0.002 µM)
Outline: (§1)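 Lung cancer cell lines were pin-tool dosed in 1536-well plates on the day after seeding, with either a lone drug or a fixed anchor-drug dose plus five library-drug doses (not always all listed) in √10 steps. Nuclei were counted on 4× images after 5 days. Relative viability is the ratio of treated-well to vehicle-well nuclei counts, with each value a median of duplicate plates.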

[2] = compound: CS(=O)(=O)N1CCN(Cc2cc3nc(-c4cccc5[nH]ncc45)nc(N4CCOCC4)c3s2)CC1 [Pictilisib] + O=C(CCCCCCC(=O)Nc1ccccc1)NO [Vorinostat] (partner 1 µM)
Outline: as §1

[3] = compound: NC1(c2ccc(-c3nc4ccn5c(=O)[nH]nc5c4cc3-c3ccccc3)cc2)CCC1 [MK-2206] + C[C@]1(O)C[C@@H](c2nc(-c3ccc4ccc(-c5ccccc5)nc4c3)c3c(N)nccn32)C1 [Linsitinib] (partner 1 µM)
Outline: as §1

[4] = compound: CS(=O)(=O)N1CCN(Cc2cc3nc(-c4cccc5[nH]ncc45)nc(N4CCOCC4)c3s2)CC1 [Pictilisib] + Cc1cc(Nc2cc(N3CCN(C)CC3)nc(Sc3ccc(NC(=O)C4CC4)cc3)n2)n[nH]1 [Tozasertib] (partner 0.1 µM)
Outline: as §1

[5] = compound: NC1(c2ccc(-c3nc4ccn5c(=O)[nH]nc5c4cc3-c3ccccc3)cc2)CCC1 [MK-2206] + O=C(CCCCCCC(=O)Nc1ccccc1)NO [Vorinostat] (partner 1 µM)
Outline: as §1

Cell Line	relative viability ([1]; first compound 0.01 µM)	relative viability ([1]; first compound 0.03162 µM)	relative viability ([1]; first compound 0.3162 µM)	relative viability ([1]; first compound 1 µM)	relative viability ([2]; first compound 0.02 µM)	relative viability ([2]; first compound 0.06325 µM)	relative viability ([2]; first compound 0.6325 µM)	relative viability ([2]; first compound 2 µM)	relative viability ([3]; first compound 0.01 µM)	relative viability ([3]; first compound 0.03162 µM)	relative viability ([3]; first compound 0.3162 µM)	relative viability ([3]; first compound 1 µM)	relative viability ([4]; first compound 0.02 µM)	relative viability ([4]; first compound 0.06325 µM)	relative viability ([4]; first compound 0.6325 µM)	relative viability ([4]; first compound 2 µM)	relative viability ([5]; first compound 0.01 µM)	relative viability ([5]; first compound 0.03162 µM)	relative viability ([5]; first compound 0.3162 µM)	relative viability ([5]; first compound 1 µM)
NCI-H2228	0.973	1.04	0.643	0.413	0.524	0.72	0.434	0.253	0.546	0.677	0.303	0.264	0.272	0.211	0.169	0.0908	0.741	0.857	0.588	0.386
NCI-H2347	0.914	1.11	1.06	0.92	0.669	0.607	0.416	0.321	0.906	1	0.848	0.952	0.512	0.517	0.462	0.285	0.641	0.581	0.645	0.555
NCI-H2405	0.96	1.1	0.958	0.987	1.26	1.06	0.842	0.432	0.878	1.09	0.878	0.71	0.764	0.725	0.663	0.348	1.04	1.09	1.07	0.894
NCI-H3122	1.03	0.942	1.09	0.973	0.91	0.965	0.759	0.504	0.942	1.07	0.927	0.91	0.323	0.311	0.321	0.142	0.924	0.969	0.944	0.871
PC-3 [JPC-3]	0.812	0.94	0.841	0.805	0.953	0.548	0.613	0.418	1.01	0.938	0.91	0.97	0.84	0.893	0.736	0.784	0.796	0.691	0.826	0.755
PC-14	0.732	0.858	0.811	0.851	0.72	0.661	0.534	0.325	0.869	1.03	0.862	0.92	0.61	0.583	0.641	0.46	0.73	0.79	0.55	0.669
RERF-LC-KJ	1.06	1.12	0.876	1.02	0.732	0.699	0.573	0.461	0.848	0.864	0.9	0.789	0.5	0.529	0.477	0.352	0.651	0.741	0.603	0.62
SK-LU-1	1.28	1.22	1.01	0.747	0.857	0.818	0.618	0.511	1.19	1.02	0.987	1.01	0.362	0.304	0.3	0.233	0.818	0.778	0.823	0.735
SW 1573	0.948	1.04	0.834	0.629	0.767	0.733	0.35	0.217	0.751	0.824	0.665	0.592	0.164	0.174	0.146	0.137	0.665	0.94	0.449	0.6
